Patent US6509377B1, “Use of a 2-hydroxy-4-trifluoromethylbenzoic acid derivatives as inhibitors of the activation of the nuclear transcription factor NF-κB” (J. Uriach & Cia, S.A., priority 1999, dated 2003)

Experiments:
NF-κB = experiment: Activation of NF-κB induced by immune complexes in rat peritoneal macrophages (EMSA); format: cell-based; conditions: 4 mM, 100 μg/ml IgG/ovalbumin, 2 hours
Description: Rat peritoneal cavity cells were extracted and resuspended in DMEM culture medium in the absence of serum previously supplemented with 100 U/ml penicillin, 100 μg/ml streptomycin, 50 μg/ml gentamycin, 2 mM glutamine and 0.5 mM L-arginine. Cells were incubated for 2 hours in culture plates at 37° C. and those which had not adhered to the plates were removed by washing three times with the same fresh medium. More than 95% of the adherent cells were macrophages, as assessed by their ability to engulf zymosan particles and nonspecific esterase staining. Macrophages were kept at 37° C. under a 5% CO2 atmosphere and two hours later non-adherent cells were removed and the peritoneal macrophages adhered to the plates were incubated with 100 μg/ml IgG/ovalbumin immune complexes prepared from; rabbit antiserum for 2 hours in the presence or absence (vehicle) of triflusal or HTB (4 mM, both).
After incubation, macrophages were washed twice with PBS and the degree of activation (binding to DNA) of the transcription factor NF-κB was determined using the EMSA assay, described in detail in Example 1.

VCAM-1 = experiment: Expression of VCAM-1 mRNA induced by TNF-α in HUVEC (RT-PCR); format: cell-based, human; conditions: 4 mM, TNF-α 100 U/ml, one hour
Source text: Primers used for the detection of VCAM-1 mRNA by RT-PCR were designed from the human gene sequence (EMBUGenBank AC: M30257), using the Wisconsin Package Version 9.1, Genetics Computer Group (GCG), Madison, Wis. Their sequences were 5′-TGTCACTGTMGCTGCMG-3′ and 5′-TTCCAGCCTGGTTAATTC-3′, corresponding to nucleotides 1090-1108 and 1589-1572 (L. Osbom et al., Cell 1989, 59(6), 1203-1211). Total RNA was extracted from cultured cells using the guanidium isothiocyanate method (P. Chomczynski and N. Sacchi, Anal Biochem. 1987, 162(1), 156-159). cDNA first strand was synthesized from total RNA by reverse transcription reaction. […] The relative amounts of each amplified cDNA were determined by measuring the density of the bands stained with ethidium bromide using the Gel Doc documentation system and the Molecular Analyst software from Bio-Rad Laboratories, Hercules, Calif. […]
Specifically, the effect of Triflusal (4 mM) and HTB (4 mM) on the regulation of the expression of VCAM-1 mRNA induced by TNF-α (100 U/ml) in HUVEC was studied. […] The PCR products were separated by electrophoresis in a 1.8% agarose gel and were later quantified. The molecular weight of the amplification products was determined from the electrophoretic migration of DNA size standards.

## O=C(O)c1ccc(C(F)(F)F)cc1O [HTB, 2-hydroxy-4-trifluoromethylbenzoic acid]
NF-κB
  inhibition of the activation of NF-κB induced by immune complexes: markedly inhibit
VCAM-1
  inhibition of the expression of VCAM-1 mRNA induced by TNF-α: completely inhibit

## CC(=O)Oc1cc(C(F)(F)F)ccc1C(=O)O [triflusal, 2-Acetyloxy-4-trifluoromethylbenzoic acid, reference compound]
NF-κB
  inhibition of the activation of NF-κB induced by immune complexes: markedly inhibit
VCAM-1
  inhibition of the expression of VCAM-1 mRNA induced by TNF-α: completely inhibit
